Data as given in paper PMC10378394 (Current Issues in Molecular Biology, 2023).

What was measured:
[1] = tested on: HUVECs; experiment: Tube formation assay; assay type: cell-based, human
Experimental: Cell culture plates were coated with Matrigel at a concentration of 7 mg/mL and incubated at 37 °C for 45 min to allow gel formation. Human umbilical vein endothelial cells (HUVECs) were harvested using trypsin and resuspended in endothelial cell growth medium. Following a 5 h incubation period, the formation of endothelial cell tubes was assessed using an inverted photomicroscope (Nikon, Tokyo, Japan). Microphotographs were taken, and the quantification of tube formation, specifically tube length, was performed. To quantify tube formation, measurements were obtained using ImageJ. The long axis of each tube or single cell, as well as groups of adjacent cells, was measured.

[2] = biological target: PI3Kinase(p110a(H1047R)/p85a)(m) (Mus musculus, UniProt P42337, H1047R); experiment: Eurofins kinase assay
[3] = biological target: BTK(h) (Homo sapiens, UniProt Q06187); experiment: Eurofins kinase assay
[4] = biological target: PKCι(h) (Homo sapiens, UniProt P41743); experiment: Eurofins kinase assay
[5] = biological target: MST2(h) (Homo sapiens, UniProt Q13188); experiment: Eurofins kinase assay
[6] = biological target: p70S6K(h) (Homo sapiens, UniProt P23443); experiment: Eurofins kinase assay
[7] = biological target: PKD2(h) (Homo sapiens, UniProt Q9BZL6); experiment: Eurofins kinase assay
[8] = biological target: CDK2/cyclinE(h) (Homo sapiens, UniProt P24941); experiment: Eurofins kinase assay
[9] = biological target: PKCγ(h) (Homo sapiens, UniProt P05129); experiment: Eurofins kinase assay
[10] = biological target: CHK2(h) (Homo sapiens, UniProt O96017); experiment: Eurofins kinase assay
[11] = biological target: PKA(h) (Homo sapiens, UniProt P17612); experiment: Eurofins kinase assay
[12] = biological target: MAPK1(h) (Homo sapiens, UniProt P27361); experiment: Eurofins kinase assay
[13] = biological target: NEK2(h) (Homo sapiens, UniProt P51955); experiment: Eurofins kinase assay
[14] = biological target: GSK3β(h) (Homo sapiens, UniProt P49841); experiment: Eurofins kinase assay
[15] = biological target: CDK3/cyclinE(h) (Homo sapiens, UniProt Q00526); experiment: Eurofins kinase assay
[16] = biological target: MAPK2(h) (Homo sapiens, UniProt P28482); experiment: Eurofins kinase assay
[17] = biological target: EphB2(h) (Homo sapiens, UniProt P29323); experiment: Eurofins kinase assay
[18] = biological target: PKCα(h) (Homo sapiens, UniProt P17252); experiment: Eurofins kinase assay
[19] = biological target: PKCδ(h) (Homo sapiens, UniProt Q05655); experiment: Eurofins kinase assay
[20] = biological target: PRAK(h) (Homo sapiens, UniProt Q8IW41); experiment: Eurofins kinase assay
[21] = biological target: IGF-1R(h) (Homo sapiens, UniProt P08069); experiment: Eurofins kinase assay
[22] = biological target: Syk(h) (Homo sapiens, UniProt P43405); experiment: Eurofins kinase assay

Sequence of GSK3β(h) (P49841 whole entry): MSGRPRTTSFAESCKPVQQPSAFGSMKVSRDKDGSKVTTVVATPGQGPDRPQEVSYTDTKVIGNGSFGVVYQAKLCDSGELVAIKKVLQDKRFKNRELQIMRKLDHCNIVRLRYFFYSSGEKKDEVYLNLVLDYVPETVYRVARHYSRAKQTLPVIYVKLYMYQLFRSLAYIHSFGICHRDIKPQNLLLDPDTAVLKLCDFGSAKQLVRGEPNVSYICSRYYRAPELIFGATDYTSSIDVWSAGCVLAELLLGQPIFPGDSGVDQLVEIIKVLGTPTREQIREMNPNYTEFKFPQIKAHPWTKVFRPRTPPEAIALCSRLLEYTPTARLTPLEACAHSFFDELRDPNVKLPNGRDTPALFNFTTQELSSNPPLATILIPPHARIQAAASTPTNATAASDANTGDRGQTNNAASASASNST
Sequence of PKCδ(h) (Q05655 whole entry): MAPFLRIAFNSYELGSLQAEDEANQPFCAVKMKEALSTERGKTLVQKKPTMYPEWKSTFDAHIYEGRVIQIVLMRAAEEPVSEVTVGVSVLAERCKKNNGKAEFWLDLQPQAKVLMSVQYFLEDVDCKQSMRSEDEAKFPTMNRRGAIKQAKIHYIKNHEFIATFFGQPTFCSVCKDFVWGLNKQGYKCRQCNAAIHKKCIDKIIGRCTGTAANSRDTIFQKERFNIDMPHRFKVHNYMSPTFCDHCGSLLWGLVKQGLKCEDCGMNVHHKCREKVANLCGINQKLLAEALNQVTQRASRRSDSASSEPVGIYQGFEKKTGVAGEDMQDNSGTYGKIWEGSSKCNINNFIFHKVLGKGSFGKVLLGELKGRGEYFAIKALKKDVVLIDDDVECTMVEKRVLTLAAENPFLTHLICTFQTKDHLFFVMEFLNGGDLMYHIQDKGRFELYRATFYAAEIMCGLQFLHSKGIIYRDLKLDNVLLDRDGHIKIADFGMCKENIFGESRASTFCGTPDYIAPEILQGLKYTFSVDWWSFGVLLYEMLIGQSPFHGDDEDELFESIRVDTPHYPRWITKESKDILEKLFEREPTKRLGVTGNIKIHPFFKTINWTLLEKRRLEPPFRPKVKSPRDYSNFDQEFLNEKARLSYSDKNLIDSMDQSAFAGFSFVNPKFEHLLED
Sequence of PKD2(h) (Q9BZL6 whole entry): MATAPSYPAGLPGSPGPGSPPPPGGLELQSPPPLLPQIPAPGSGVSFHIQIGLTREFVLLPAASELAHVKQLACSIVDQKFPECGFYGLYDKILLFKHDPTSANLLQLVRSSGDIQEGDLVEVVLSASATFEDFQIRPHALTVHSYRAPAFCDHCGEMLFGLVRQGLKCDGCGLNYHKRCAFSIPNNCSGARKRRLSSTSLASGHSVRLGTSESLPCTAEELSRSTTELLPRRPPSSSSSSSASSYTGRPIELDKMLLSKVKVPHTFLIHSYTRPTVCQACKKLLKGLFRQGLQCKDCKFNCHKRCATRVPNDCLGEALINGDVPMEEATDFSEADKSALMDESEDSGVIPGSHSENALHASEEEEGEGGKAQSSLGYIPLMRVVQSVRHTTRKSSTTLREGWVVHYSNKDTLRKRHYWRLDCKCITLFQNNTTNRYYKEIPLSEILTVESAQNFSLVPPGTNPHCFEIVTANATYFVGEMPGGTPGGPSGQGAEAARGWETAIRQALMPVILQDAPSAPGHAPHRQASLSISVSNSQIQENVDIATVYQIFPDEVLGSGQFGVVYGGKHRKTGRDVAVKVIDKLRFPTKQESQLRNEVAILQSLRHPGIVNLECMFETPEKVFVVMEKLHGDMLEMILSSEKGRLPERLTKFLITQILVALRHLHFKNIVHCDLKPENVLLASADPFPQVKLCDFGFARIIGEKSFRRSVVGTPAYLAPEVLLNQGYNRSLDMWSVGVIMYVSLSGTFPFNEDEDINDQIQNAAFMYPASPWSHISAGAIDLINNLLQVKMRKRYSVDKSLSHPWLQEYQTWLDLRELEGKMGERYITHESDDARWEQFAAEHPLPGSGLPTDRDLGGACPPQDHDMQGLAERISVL
Sequence of PI3Kinase(p110a(H1047R)/p85a)(m) (P42337 whole entry H1047R): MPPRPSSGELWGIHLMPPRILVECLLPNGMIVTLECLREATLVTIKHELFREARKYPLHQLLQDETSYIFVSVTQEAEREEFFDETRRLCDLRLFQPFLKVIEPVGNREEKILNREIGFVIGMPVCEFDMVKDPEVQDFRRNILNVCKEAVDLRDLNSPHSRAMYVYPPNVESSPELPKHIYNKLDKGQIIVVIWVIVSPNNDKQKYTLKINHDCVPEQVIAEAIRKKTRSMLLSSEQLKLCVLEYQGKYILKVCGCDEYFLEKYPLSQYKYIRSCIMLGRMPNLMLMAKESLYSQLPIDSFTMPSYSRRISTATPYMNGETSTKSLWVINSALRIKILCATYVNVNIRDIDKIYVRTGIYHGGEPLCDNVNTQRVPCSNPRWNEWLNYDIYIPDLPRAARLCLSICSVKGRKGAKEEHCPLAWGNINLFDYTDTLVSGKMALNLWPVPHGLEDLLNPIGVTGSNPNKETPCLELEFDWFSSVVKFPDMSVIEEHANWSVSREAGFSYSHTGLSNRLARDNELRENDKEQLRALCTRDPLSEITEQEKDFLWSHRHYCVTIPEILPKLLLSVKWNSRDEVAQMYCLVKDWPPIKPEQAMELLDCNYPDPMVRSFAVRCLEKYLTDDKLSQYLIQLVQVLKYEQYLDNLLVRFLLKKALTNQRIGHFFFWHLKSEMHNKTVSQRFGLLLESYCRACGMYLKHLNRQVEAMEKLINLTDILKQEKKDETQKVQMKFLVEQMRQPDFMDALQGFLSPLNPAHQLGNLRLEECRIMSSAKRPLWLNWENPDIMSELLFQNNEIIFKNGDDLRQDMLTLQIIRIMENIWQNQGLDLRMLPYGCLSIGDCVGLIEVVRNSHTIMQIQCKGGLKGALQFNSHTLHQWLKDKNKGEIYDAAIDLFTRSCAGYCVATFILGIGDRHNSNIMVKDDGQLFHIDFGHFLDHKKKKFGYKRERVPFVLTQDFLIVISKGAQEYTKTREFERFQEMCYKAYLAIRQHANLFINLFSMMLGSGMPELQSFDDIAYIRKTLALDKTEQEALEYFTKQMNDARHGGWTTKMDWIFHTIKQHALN
Sequence of PI3Kinase(p110a(H1047R)/p85a)(m) (P26450 2-724 partner): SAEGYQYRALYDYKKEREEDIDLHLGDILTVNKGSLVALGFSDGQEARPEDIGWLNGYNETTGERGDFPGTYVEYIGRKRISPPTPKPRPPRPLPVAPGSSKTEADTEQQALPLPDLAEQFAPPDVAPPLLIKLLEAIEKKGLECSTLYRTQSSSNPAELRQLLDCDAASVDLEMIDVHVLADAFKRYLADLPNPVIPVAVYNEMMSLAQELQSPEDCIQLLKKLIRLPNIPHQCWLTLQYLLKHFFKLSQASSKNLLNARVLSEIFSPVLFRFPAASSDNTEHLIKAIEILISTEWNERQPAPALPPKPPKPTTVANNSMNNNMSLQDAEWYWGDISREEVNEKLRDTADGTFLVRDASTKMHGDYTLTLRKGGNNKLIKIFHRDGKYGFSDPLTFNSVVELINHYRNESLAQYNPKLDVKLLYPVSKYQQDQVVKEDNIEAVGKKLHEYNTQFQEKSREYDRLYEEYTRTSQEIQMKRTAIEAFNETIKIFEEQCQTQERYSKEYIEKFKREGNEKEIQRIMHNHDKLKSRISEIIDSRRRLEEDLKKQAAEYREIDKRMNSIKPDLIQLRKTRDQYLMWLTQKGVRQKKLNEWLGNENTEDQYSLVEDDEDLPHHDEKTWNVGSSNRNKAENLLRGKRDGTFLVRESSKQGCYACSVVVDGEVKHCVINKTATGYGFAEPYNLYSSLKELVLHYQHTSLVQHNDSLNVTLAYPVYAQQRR
Sequence of MST2(h) (Q13188 whole entry): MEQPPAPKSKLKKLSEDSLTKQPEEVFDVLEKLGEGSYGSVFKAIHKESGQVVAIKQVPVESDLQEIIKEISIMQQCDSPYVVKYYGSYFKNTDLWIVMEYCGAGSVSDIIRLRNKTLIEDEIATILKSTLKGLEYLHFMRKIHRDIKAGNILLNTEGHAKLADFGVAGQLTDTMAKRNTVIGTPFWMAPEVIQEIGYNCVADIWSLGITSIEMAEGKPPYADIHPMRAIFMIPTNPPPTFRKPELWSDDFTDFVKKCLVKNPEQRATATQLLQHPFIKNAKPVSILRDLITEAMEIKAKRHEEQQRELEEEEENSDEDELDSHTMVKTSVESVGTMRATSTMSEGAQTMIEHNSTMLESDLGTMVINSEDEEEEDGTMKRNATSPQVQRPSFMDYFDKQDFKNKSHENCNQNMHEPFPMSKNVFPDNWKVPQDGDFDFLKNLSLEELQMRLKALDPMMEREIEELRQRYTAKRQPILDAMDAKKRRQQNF

Q: Which “VEGF-stimulated endothelial tube formation” value [1] does the source give for O=C(Nc1cc(Nc2ncccc2-c2ncnc3[nH]cnc23)ccc1F)c1cc(C(F)(F)F)cc(C(F)(F)F)c1 [SJ-C1044, N-(5-(3-(9H-purin-6-yl)pyridin-2-ylamino)-2-fluorophenyl)-3,5-bis(trifluoromethyl)benzamide] here?
A: strong activity

Q: What about the “VEGF-induced tube formation, compared to LY3009120” value ([1]; 10 μM, 10 nmol/L VEGF) of the same molecule?
A: more effectively blocked

Q: What about the inhibition at 10 µM [2] of the same molecule?
A: 37%

Q: And the inhibition at 10 µM [3]?
A: 18%

Q: What about the inhibition at 10 µM [4] of the same molecule?
A: 11%

Q: What about the inhibition at 10 µM [5] of the same molecule?
A: 9%

Q: What about the inhibition at 10 µM [6] of the same molecule?
A: 8%

Q: What about the inhibition at 10 µM [7] of the same molecule?
A: 3%

Q: What about the inhibition at 10 µM [8] of the same molecule?
A: 2%

Q: And the inhibition at 10 µM [9]?
A: 1%

Q: And the inhibition at 10 µM [10]?
A: 0%

Q: And the inhibition at 10 µM [11]?
A: -2%

Q: What about the inhibition at 10 µM [12] of the same molecule?
A: -3%

Q: What about the inhibition at 10 µM [13] of the same molecule?
A: -4%

Q: And the inhibition at 10 µM [14]?
A: -5%

Q: And the inhibition at 10 µM [15]?
A: -7%

Q: And the inhibition at 10 µM [16]?
A: -7%

Q: And the inhibition at 10 µM [17]?
A: -8%

Q: And the inhibition at 10 µM [18]?
A: -14%

Q: What about the inhibition at 10 µM [19] of the same molecule?
A: -14%

Q: And the inhibition at 10 µM [20]?
A: -15%

Q: And the inhibition at 10 µM [21]?
A: -24%

Q: And the inhibition at 10 µM [22]?
A: -26%
